# Measured values taken from publication PMC7587962, “Evaluation of Cytotoxicity and α-Glucosidase Inhibitory Activity of Amide and Polyamino-Derivatives of Lupane Triterpenoids” (Molecules, 2020).
# Legend:
# CCRF-CEM = experiment: NCI-60 SRB screen: leukemia CCRF-CEM; assay type: cell-based; details: Homo sapiens, 48 h
# OVCAR-4 = experiment: NCI-60 SRB screen: ovarian cancer OVCAR-4; assay type: cell-based; details: Homo sapiens; OVCAR-4; five concentrations, 48 h, SRB; read-out: GI50
# MOLT-4 = experiment: NCI-60 SRB screen: leukemia MOLT-4; assay type: cell-based; details: Homo sapiens, 48 h, MOLT-4
# NCI-H226 = experiment: NCI-60 SRB screen: non-small cell lung cancer NCI-H226; assay type: cell-based, human; details: NCI-H226
# SN12C = experiment: NCI-60 SRB screen: renal cancer SN12C; assay type: cell-based, human
# OVCAR-8 = experiment: NCI-60 SRB screen: ovarian cancer OVCAR-8; assay type: cell-based, human; details: OVCAR-8
# DU-145 = experiment: NCI-60 SRB screen: prostate cancer DU-145; assay type: cell-based, human; details: DU-145
# Colon Cancer subpanel = experiment: NCI-60 screen, subpanel Colon Cancer
# T-47D = experiment: NCI-60 SRB screen: breast cancer T-47D; assay type: cell-based, human; details: T-47D
# MCF7 = experiment: NCI-60 SRB screen: breast cancer MCF7; assay type: cell-based; details: Homo sapiens, 48 h, MCF7
# CAKI-1 = experiment: NCI-60 SRB screen: renal cancer CAKI-1; assay type: cell-based, human; details: CAKI-1
# EKVX = experiment: NCI-60 SRB screen: non-small cell lung cancer EKVX; assay type: cell-based, human
# SR = experiment: NCI-60 SRB screen: leukemia SR; assay type: cell-based; details: Homo sapiens, 48 h
# Ovarian Cancer subpanel = experiment: NCI-60 screen, subpanel Ovarian Cancer
# BT-549 = experiment: NCI-60 SRB screen: breast cancer BT-549; assay type: cell-based, human; details: BT-549
# 786-0 = experiment: NCI-60 SRB screen: renal cancer 786-0; assay type: cell-based, human; details: 786-0
# M14 = experiment: NCI-60 SRB screen: melanoma M14; assay type: cell-based, human; details: M14
# SK-OV-3 = experiment: NCI-60 SRB screen: ovarian cancer SK-OV-3; assay type: cell-based, human; details: SK-OV-3
# NCI-H322M = experiment: NCI-60 SRB screen: non-small cell lung cancer NCI-H322M; assay type: cell-based, human
# HS 578T = experiment: NCI-60 SRB screen: breast cancer HS 578T; assay type: cell-based, human; details: HS 578T
# NCI/ADR-RES = experiment: NCI-60 SRB screen: ovarian cancer NCI/ADR-RES; assay type: cell-based, human
# HOP-92 = experiment: NCI-60 SRB screen: non-small cell lung cancer HOP-92; assay type: cell-based, human; details: HOP-92
# MALME-3M = experiment: NCI-60 SRB screen: melanoma MALME-3M; assay type: cell-based, human; details: MALME-3M
# A498 = experiment: NCI-60 SRB screen: renal cancer A498; assay type: cell-based, human; details: A498
# Prostate cancer subpanel = experiment: NCI-60 screen, subpanel Prostate cancer
# SK-MEL-28 = experiment: NCI-60 SRB screen: melanoma SK-MEL-28; assay type: cell-based, human; details: SK-MEL-28
# RPMI-8226 = experiment: NCI-60 SRB screen: leukemia RPMI-8226; assay type: cell-based; details: Homo sapiens, 48 h, RPMI-8226
# UACC-257 = experiment: NCI-60 SRB screen: melanoma UACC-257; assay type: cell-based, human; details: UACC-257
# U251 = experiment: NCI-60 SRB screen: CNS cancer U251; assay type: cell-based; details: Homo sapiens, U251
# SNB-75 = experiment: NCI-60 SRB screen: CNS cancer SNB-75; assay type: cell-based, human; details: SNB-75
# OVCAR-5 = experiment: NCI-60 SRB screen: ovarian cancer OVCAR-5; assay type: cell-based, human; details: OVCAR-5
# SF-295 = experiment: NCI-60 SRB screen: CNS cancer SF-295; assay type: cell-based, human; details: SF-295
# RXF 393 = experiment: NCI-60 SRB screen: renal cancer RXF 393; assay type: cell-based, human; details: RXF 393
# HOP-62 = experiment: NCI-60 SRB screen: non-small cell lung cancer HOP-62; assay type: cell-based, human; details: HOP-62
# TK-10 = experiment: NCI-60 SRB screen: renal cancer TK-10; assay type: cell-based, human; details: TK-10
# [1] = single dose 10 µM, read-out: Percentage Cell Growth
# [2] = five concentrations, SRB, read-out: GI50
# [3] = Homo sapiens, five concentrations, 48 h, SRB, read-out: GI50
smiles,measurement,setting,value
"CC(=O)OCC12CCC(C(C)C(N)=O)C1C1CCC3C4(C)CCC(OC(C)=O)C(C)(C)C4CCC3(C)C1(C)CC2 [Compound 4, 3β,28-Diacetyloxy-(20R)-29-amino-29-oxolupane]",activity at 10 µM,CCRF-CEM; [1],-12.4%
same,GI50,CCRF-CEM; [2],5.19 µM
same,GI50,OVCAR-4,4.72 µM
same,activity at 10 µM,MOLT-4; [1],-29.1%
same,GI50,MOLT-4; [2],3.29 µM
same,GI50,NCI-H226; [3],7.28 µM
same,Percentage Cell Growth,NCI-H226; single dose 10 µM,−58.51%
same,GI50,SN12C; [3],5.65 µM
same,Percentage Cell Growth,SN12C; single dose 10 µM,−91.61%
same,GI50,OVCAR-8; [3],54.4 µM
same,Percentage Cell Growth,OVCAR-8; single dose 10 µM,−31.70%
same,Percentage Cell Growth,DU-145; single dose 10 µM,−69.87%
same,GI50,DU-145; [3],9.94 µM
same,"MID b, average sensitivity of all cell line of particular subpanel",Colon Cancer subpanel,5.37 µM
same,"Selectivity, ratio MID a: MID b",Colon Cancer subpanel,1.47
same,GI50,"T-47D; Homo sapiens, T47D, five concentrations, 48 h, SRB, read-out: GI50",2.91 µM
same,Percentage Cell Growth,T-47D; single dose 10 µM,−8.82%
same,activity at 10 µM,MCF7; [1],-45.6%
same,GI50,MCF7; [2],3.27 µM
same,Percentage Cell Growth,CAKI-1; single dose 10 µM,−45.80%
same,GI50,CAKI-1; [3],3.24 µM
same,GI50,EKVX; [3],9.28 µM
same,Percentage Cell Growth,EKVX; single dose 10 µM,−25.21%
same,activity at 10 µM,SR; [1],10.8%
same,GI50,SR; [2],3.32 µM
same,"MID b, average sensitivity of all cell line of particular subpanel",Ovarian Cancer subpanel,15.97 µM
same,"Selectivity, ratio MID a: MID b",Ovarian Cancer subpanel,0.49
same,Percentage Cell Growth,BT-549; single dose 10 µM,−55.13%
same,GI50,BT-549; [3],8.17 µM
same,Percentage Cell Growth,786-0; single dose 10 µM,−73.99%
same,GI50,786-0; [3],10.9 µM
same,GI50,M14; [3],7.38 µM
same,Percentage Cell Growth,M14; single dose 10 µM,−44.25%
same,GI50,SK-OV-3; [3],13.4 µM
same,Percentage Cell Growth,SK-OV-3; single dose 10 µM,−11.89%
same,GI50,NCI-H322M; [3],13 µM
same,Percentage Cell Growth,NCI-H322M; single dose 10 µM,−78.19%
same,Percentage Cell Growth,HS 578T; single dose 10 µM,−32.99%
same,GI50,HS 578T; [3],12.4 µM
same,GI50,NCI/ADR-RES; [3],7.74 µM
same,Percentage Cell Growth,NCI/ADR-RES; single dose 10 µM,−57.29%
same,Percentage Cell Growth,HOP-92; single dose 10 µM,−83.15%
same,GI50,HOP-92; [3],5.21 µM
same,GI50,MALME-3M; [3],10.5 µM
same,Percentage Cell Growth,MALME-3M; single dose 10 µM,−88.97%
same,Percentage Cell Growth,A498; single dose 10 µM,−81.70%
same,GI50,A498; [3],12.8 µM
same,"MID b, average sensitivity of all cell line of particular subpanel",Prostate cancer subpanel,6.31 µM
same,"Selectivity, ratio MID a: MID b",Prostate cancer subpanel,1.25
same,GI50,SK-MEL-28; [3],12 µM
same,Percentage Cell Growth,SK-MEL-28; single dose 10 µM,−73.19%
same,activity at 10 µM,RPMI-8226; [1],-18.3%
same,GI50,RPMI-8226; [2],2.63 µM
same,GI50,UACC-257; [3],4.83 µM
same,Percentage Cell Growth,UACC-257; single dose 10 µM,−46.24%
same,activity at 10 µM,"U251; U-251, 48 h, single dose 10 µM, read-out: Percentage Cell Growth",-51.4%
same,GI50,"U251; U-251, five concentrations, 48 h, SRB, read-out: GI50",5.1 µM
same,GI50,SNB-75; [3],5.59 µM
same,Percentage Cell Growth,SNB-75; single dose 10 µM,−47.83%
same,GI50,OVCAR-5; [3],14.4 µM
same,Percentage Cell Growth,OVCAR-5; single dose 10 µM,−77.37%
same,GI50,SF-295; [3],8.57 µM
same,Percentage Cell Growth,SF-295; single dose 10 µM,−50.75%
same,GI50,RXF 393; [3],4.28 µM
same,Percentage Cell Growth,RXF 393; single dose 10 µM,−64.94%
same,Percentage Cell Growth,HOP-62; single dose 10 µM,−72.98%
same,GI50,HOP-62; [3],1.1 µM
same,GI50,TK-10; [3],14.7 µM
same,Percentage Cell Growth,TK-10; single dose 10 µM,−35.40%
